Data taken from patent US20240327929A1, “DOSAGE REGIMEN FOR ADMINISTRATION OF BELZUTIFAN” (MERCK SHARP & DOHME LLC, priority 2021, published 2024).
“And” between values parts separate entries of the source, which are not always exact repeats. Equal entries are not always repeated.

Assays:
[1] = Effect of body weight on MK-6482 exposure (pooled Phase 1 mixed effects model); conditions: for % Change in AUC (h*ng/mL) per 10 kg increase in body weight / % Change in Cmax (ng/mL) per 10 kg increase in body weight: model accounting for dose, formulation
Description: Linear mixed effect model analyses were performed on the natural log transformed PK parameters from the four pooled Phase 1 studies, separately for AUC and Cmax. The model contained fixed effects of natural log transformed dose, drug formulation (old or new), enzyme phenotype determined from genotype, relevant additional covariates, and a random subject effect. UGT2B17 phenotype was considered as a categorical variable with dummy encoding for each phenotype (intermediate metabolizers (IM), poor metabolizers (PM)) that differed from the extensive metabolizer (EM) category). Similarly, CYP2C19 metabolizer status was considered as a categorical variable with dummy encoding for each phenotype (PM, IM, rapid metabolizers (RM) and ultra-rapid metabolizers (UM)) that differed from the EM category. Relevant covariates were selected under the null hypothesis from the following: disease (healthy vs patient), body weight (in kg), age, gender, and dose-by-body weight and dose-by-formulation interactions. Final models used to generate tables in this Example include log (dose), formulation (old/new), body weight (kg), and enzyme phenotype as variables.
Between- and within-subject random effects were modeled via terms Si and ϵij, respectively, and assumed to be normally distributed.
Presence of an interactive effect was tested using an F-test with Kenward-Roger denominator degrees of freedom for the fixed effects. As a descriptive measure, the effect of body weight on exposure was also calculated separately within each UGT2B17 group using a mixed effects model accounting for log(dose) and formulation only. […] For the overall estimate, model (1) was used.

[2] = Effect of dose and formulation on MK-6482 exposure (pooled Phase 1 mixed effects model); conditions: human, in vivo
Excerpt: There are many important differences in patient composition between the trials. To note, MK-6482-001 was a first-in-human dose finding trial studying patients with advanced solid tumors or renal cell carcinoma (RCC), while MK-6482-002,-006, and-007 were PK trials conducted with (predominantly female) healthy volunteers. In addition, study-007 enrolled Japanese subjects based on specific CYP2C19 phenotypes; all other studies enrolled subjects without genotype-based selection criteria. Finally, the protocols differed in terms of belzutifan formulation given to trial subjects: subjects in protocols 001 and 002 were given one formulation of belzutifan, study 006 compared that formulation and a new formulations, enrolling all subjects to receive both the formulations, and study 007 patients only received the new formulation of MK-6482.

[3] = molecular target: T1, UGT2B17 (Homo sapiens, UniProt O75795)
T1 sequence (O75795 24-530): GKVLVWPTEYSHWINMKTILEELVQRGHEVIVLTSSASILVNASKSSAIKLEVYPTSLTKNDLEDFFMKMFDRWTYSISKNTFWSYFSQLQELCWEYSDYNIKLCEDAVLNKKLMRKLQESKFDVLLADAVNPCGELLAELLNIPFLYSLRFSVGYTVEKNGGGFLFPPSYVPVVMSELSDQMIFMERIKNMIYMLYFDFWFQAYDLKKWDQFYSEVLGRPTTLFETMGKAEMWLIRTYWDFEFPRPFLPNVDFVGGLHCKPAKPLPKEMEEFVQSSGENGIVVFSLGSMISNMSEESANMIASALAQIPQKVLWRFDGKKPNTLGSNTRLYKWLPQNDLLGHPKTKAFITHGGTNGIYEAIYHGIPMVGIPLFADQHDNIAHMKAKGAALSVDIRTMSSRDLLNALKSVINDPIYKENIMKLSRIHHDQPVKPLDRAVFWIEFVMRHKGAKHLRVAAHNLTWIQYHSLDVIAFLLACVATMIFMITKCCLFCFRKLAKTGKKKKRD

[4] = tested on: UGT2B17 and CYP2C19; assay: Pharmacogenetic analysis of pooled Phase 1 PK: combined UGT2B17 and CYP2C19 phenotype vs double EM; conditions: model-based estimates
Description: Linear mixed effect model analyses were performed on the natural log transformed PK parameters from the four pooled Phase 1 studies, separately for AUC and Cmax. The model contained fixed effects of natural log transformed dose, drug formulation (old or new), enzyme phenotype determined from genotype, relevant additional covariates, and a random subject effect. UGT2B17 phenotype was considered as a categorical variable with dummy encoding for each phenotype (intermediate metabolizers (IM), poor metabolizers (PM)) that differed from the extensive metabolizer (EM) category). […]
To understand the differences in exposure between different genetic phenotype categories, least square means were computed for each UGT2B17 phenotype, each CYP2C19 phenotype, and for each combination UGT2B17/CYP2C19 phenotype. […] Similar analyses were also conducted separately within each UGT2B17 phenotype group to quantify the difference in exposure between CYP2C19 phenotype groups separately for each UGT2B17 phenotype. […]
The Phase 1 PK endpoints analyzed were AUCo->following single dose (SD) administration and steady state AUCo-, following multiple dose (MD) administration pooled, as well as Cmax following SD administration and steady state Cmax following MD administration pooled. […]

[5] = cited from earlier work
[6] = dose-escalation cohort, doses up to 160 mg once daily

Compound: CS(=O)(=O)c1ccc(Oc2cc(F)cc(C#N)c2)c2c1[C@H](O)[C@H](F)[C@@H]2F [MK-6482, 3-[(1S,2S, 3R)-2,3-Difluoro-1-hydroxy-7-methylsulfonyl-indan-4-yl]oxy-5-fluoro-benzonitrile]
- expected difference in exposure between extremes of body weight ([1]; 41 kg vs 164 kg, independent of enzyme phenotype): ~2.9 fold
- % Change in AUC (h*ng/mL) per 10 kg increase in body weight ([1]; UGT2B17 EM): −10.9%
- % Change in Cmax (ng/mL) per 10 kg increase in body weight ([1]; UGT2B17 EM): −6.4%
- % Change in AUC (h*ng/mL) per 10 kg increase in body weight ([1]; UGT2B17 IM): −8.3%
- % Change in Cmax (ng/mL) per 10 kg increase in body weight ([1]; UGT2B17 IM): −7.8%
- % Change in AUC (h*ng/mL) per 10 kg increase in body weight ([1]; UGT2B17 PM): −15.5%
- % Change in Cmax (ng/mL) per 10 kg increase in body weight ([1]; UGT2B17 PM): −4.5%
- decrease in AUC for every 10 kg increase in body weight ([1]; overall, all subjects): 9.2 (6.5, 12.0) % and 9.2%
- decrease in Cmax for every 10 kg increase in body weight ([1]; overall, all subjects): 7.0 (4.5, 9.5) %
- effect of dose on Cmax, estimated coefficient of log(dose) [2]: 0.90
- metabolism (primary pathway and enzyme) [3]: metabolized primarily by glucuronidation, catalyzed predominantly by UDP Glucuronosyltransferase Family 2 Member B17 (UGT2B17)
- exposure of PMs of both enzymes relative to EMs of both enzymes [4]: over four-fold
- dose-limiting toxicities [5, 6]: no dose-limiting toxicities occurred
- maximum tolerated dose [5, 6]: not reached
- most common adverse events ([5]; heavily pre-treated patients with ccRCC): anemia and hypoxia
